Data as given in a melting point compilation (Tetko et al.; mined from patent text by program, amines drawn as free bases though some values may be those of a salt).

Structure (SMILES) | melting point [°C]
CCC1c2cc(OC)c(OC)cc2C(c2ccc(OC)c(OC)c2)=NNC1C (configuration not stated) | 120 to 122
Cc1cccc(C)c1NC(N)=NOC1CCCCO1 (configuration not stated) | 196 to 197
CCCCN1C(=O)c2cncnc2N(C(=O)CN2CCN(C)CC2)c2ccccc21 | 153 to 154
COC(=O)Cn1c(C(=O)NC(N)=S)cc2cc(OC)ccc21 | 202 to 206
O=C(NCCCCCCCCCCCC(=O)OCC12CC3CC(CC(C3)C1)C2)NC12CC3CC(CC(C3)C1)C2 | 68
O=C(N=P(c1ccccc1)(c1ccccc1)c1ccccc1)OCC1CC1 | 107 to 113
CC(C)(C)C(=O)Nc1ccccc1C(c1ccc(O)cc1)c1ccc(O)cc1 | 259 to 262
CC(C)(C)OC(=O)N[C@@H](Cc1ccc(OS(=O)(=O)C(F)(F)F)cc1)C(=O)OC(c1ccccc1)c1ccccc1 | 110 to 112
O=C1C(=O)c2ccccc2C2=C1SCC1(CCN(CC(O)COc3ccc4ccccc4c3)CC1)O2 (configuration not stated) | 164 to 167
COc1ccc(-c2nc(-c3ccccc3)n(CCCCCCCC(=O)O)c2-c2ccc(OC)cc2)cc1 | 149 to 150
Cc1ccc2c(c1)C=Cc1ncccc1C2c1cn(C)c(=O)[nH]c1=S (configuration not stated) | 157 to 160
CC(c1ccccc1N1CCCC1)C(C(N)=O)c1ccc(C(=O)O)cc1 (configuration not stated) | 155 to 157
CCOc1ccc(Oc2c([N+](=O)[O-])cc(C(=O)OC)cc2[N+](=O)[O-])cc1 | 101 to 103
CCc1cc(NC(=O)N2CCN(c3cc(N4CCCC4)nc(N4CCCC4)n3)CC2)c(OC)nc1C | 162 to 166
CC(=O)N1CCN(Cc2cnc(-c3cc4cccc(N(C)S(=O)(=O)c5cccs5)c4[nH]3)s2)CC1 | 177 to 178
COc1cccc(/C=C/c2nc3c(c(=O)n(C)c(=O)n3C)n2C)c1OC | 234 to 237
CCCc1c(O[C@@H]2CCC[C@H](Sc3ccc(C(=O)CCC(=O)O)cc3)C2)ccc(C(C)=O)c1O (relative stereo) | 101 to 103
CCOC(=O)C1C(=O)CC(C)(O)C(C(=O)OCC)C1c1cc(Br)c2oc(C)c(C)c2c1 (configuration not stated) | 194 to 195
COc1ccc(SC)c2c1CC(=O)CC2 | 88 to 90

Structure (SMILES) | melting point [°C]
COc1ccc(NC(=O)NCc2ccc3c(c2)CN(C2CCC(=O)NC2=O)C3=O)cc1OC (configuration not stated) | 216 to 218
O=C(O)Cc1ccc(-n2sc3ccccc3c2=O)cc1 | 173 to 175
CC(O)(c1ccccc1)c1cc(C2CCCCC2)ccc1O (configuration not stated) | 119
O=C(O)CCC/C=C/c1ccc(-c2ccccc2)cc1 | 107 to 109
O=C(c1nc(Cl)c(Cl)[nH]1)N1CCOCC1 | 215
Cc1ccc(-c2ccc(C(=O)Nc3cc4ncc(CN5CCCC5)cc4cc3C)cn2)cc1 | 214 to 218
CCn1cc(C(=O)O)c(=O)c2cc(F)c(N3CCN(C)C(c4sc5ccccc5c4C)C3)cc21 (configuration not stated) | 253 to 254
C=CCc1cc2c(c(CC=C)c1O)NC(=O)CO2 | 114 to 115
CCN(CC)C(=O)CN1C(=O)C(NC(=O)Nc2cccc(OC)c2)N=C(c2ccccc2)c2ccccc21 (configuration not stated) | 222 to 224
O=C(Nc1ccc(N2CCC(NC[C@H](O)COc3cccc4[nH]c5ccccc5c34)CC2)cc1)c1ccc2c(c1)OCO2 | 217 to 223
CCCCn1c(=O)c2c(ncn2S(=O)(=O)c2c(C)cc(C)cc2C)n(CCCC)c1=O | 125 to 127
CCOc1cnccc1C#N | 56 to 57
C[C@@H]1CCCN1CCCOc1ccc(-c2ccc(=O)[nH]n2)cn1 | 178 to 181
COc1ccc(CCN(O)C(=O)C(N)=O)cc1OC | 143 to 144
COc1ccc(C(=O)c2c(Cc3ccccc3)sc3cc(OC)ccc23)cc1 | 110 to 112
N#CC1=C(CN2C(=O)c3ccccc3C2=O)Nc2n[nH]cc2C1c1ccccc1Cl (configuration not stated) | > 250
CC(C)C1(CCc2ccccc2CO)CC(O)=C(Sc2sc3ccccc3c2C(C)(C)C)C(=O)O1 (configuration not stated) | 92 to 94
CN(C)CCCOc1ccc(-c2nnc(-c3ccc(-c4ccccc4)cc3)o2)cc1 | 130 to 132
CCOc1ccc(C(=O)Nc2ccccc2)cc1Nc1cccc(C(F)(F)F)c1 | 184 to 185

Structure (SMILES) | melting point [°C]
Fc1ccc2c(CCN=c3sc4ccccc4s3)c[nH]c2c1 | 193
COc1nc(N)nc2c1CCO2 | 172 to 177
Cn1ncnc1COc1nn2c(-c3cc(F)ccc3F)nncc2c1-c1ccccc1 | 199
COc1ccc(Nc2nccc(-c3ccc(N4CCNCC4)nc3)n2)cn1 | 160 to 165
COc1ccc(NC(=O)C23CC4CC(CC(C4)C2)C3)cc1 | 181 to 184
N#Cc1c(N2CCN(CCCCCC(=O)N3Cc4ccccc4C3)CC2)cccc1C(F)(F)F | 160
CNc1cc(Oc2ccc3c(c2)OCCN3C(=O)Nc2cccc(C(F)(F)F)c2)ncn1 | 180
CC(=O)n1nc(CN2CCc3ccccc3C2)c2ccc(F)cc21 | 106 to 107
CCN1C(=O)C(C)(C)C(=O)N(C)c2cc(CN(CCn3ccc4oc(C)cc4c3=O)Cc3ccccc3C=O)ccc21 | 157 to 158
O=P(CN(O)CP(=O)(OCc1ccccc1)OCc1ccccc1)(OCc1ccccc1)OCc1ccccc1 | 71 to 73
CP1(=O)c2ccccc2CN1c1ccc(Cl)c(Cl)c1 (configuration not stated) | 152 to 154
CC(C)(C)OC(=O)N1CC=C(c2ccc3[nH]c(=O)[nH]c3c2)CC1 | 244 to 245
Cc1ccc(S(=O)(=O)N2C(=O)c3cc4c(cc3[C@H]3[C@@H](C=O)[C@H](O[Si](C)(C)C(C)(C)C)[C@H]5OC(C)(C)O[C@H]5[C@@H]32)OCO4)cc1 | > 200
CN(Cc1c2ccccc2cc2ccccc12)C(=O)Nc1ccccc1CCc1cc(C(C)(C)C)c(O)c(C(C)(C)C)c1 | 205 to 206
CC1(C)CC(=C(c2ccc(O)cc2)c2ccc(-c3ccoc3)cc2)CC(C)(C)C1 | 128 to 129
COc1ccc(S(N)(=O)=O)cc1C(=O)NCC1CCCN1C1CC1 (configuration not stated) | 163
COc1cc(C=CC=O)ccc1OC(C)c1nc(-c2ccccc2)oc1C (configuration not stated) | 152 to 153
CCCCn1c2ccccc2c2cc(C(=O)O)ncc21 | 182 to 184

Other lines, results leading:

melting point [°C] | Structure (SMILES)
86 to 87 | OCCOCCNc1ncncc1Cc1ccccc1
128 to 130 | Cn1c(CO)nnc1NCCCCOc1cccc(CN2CCCCC2)c1
> 300 | O=C(Nc1ccc2nc3[nH]c(=O)[nH]c3cc2c1)c1ccccc1
99 to 100 | CCCNC(=Nc1ccc(Cl)cc1)Nc1ncccc1OCc1c(F)cccc1F
97 to 98 | COc1ccc2c(c1)c(CO)nn2Cc1ccccc1
144 | O=C(O)c1ncccc1OCc1ccc(Cl)cc1
253 to 254 | CCOC(=O)c1cnc2c([N+](=O)[O-])cccc2c1Cl
59 to 60 | COC(=O)c1ccc(CCc2nc(-c3ccccc3)oc2C)cc1
88 to 90 | COc1ccc(OCc2ccccc2)cc1CBr
134 to 136 | COc1cc(C2=NNC(=O)CC2)ccc1OCC1CO1 (configuration not stated)
108 to 109 | CCC(=O)n1nc(-c2ccc(Cl)cc2)nc1C
219 to 220 | O=C(NCc1ccc(Cl)cc1)c1cnc2ccc(CN3CCOCC3)cc2c1O
116 to 118 | CNC(=O)c1cc(-c2ccc(SC)cc2)nn(CC2CC2)c1=O
107 to 108 | CN(O)C(=O)c1ccc(NCCCc2ccccc2)cc1
56 to 57 | CCCOc1c(-c2ccccc2)nn(C)c1-c1ccccc1
153 to 168 | COc1cc(F)c(CN(C=O)CCc2ccc(O)cc2)cc1O
149 | O=S(=O)(CF)c1cccc(Br)c1Cl
136 to 140 | Cn1nc2ccccc2c1C(=O)NCCCN1CCC(c2ccc(F)cc2)CC1
> 300 | O=C(O)c1ccc(-c2cc(-c3ccc(Cl)cc3)no2)cc1
198 | Cc1nc2ccccn2c1CN1CCC(Nc2nc3ccccc3n2Cc2ccc(F)cc2)CC1
300 to 301 | CC(C)(C)c1ccc(C(=O)Nc2cn3cc(-c4ncc[nH]4)ccc3n2)cc1

melting point [°C] | Structure (SMILES)
> 280 | CNC(=O)c1cc2c(Oc3ccc(C4=NCCN4)cc3)cncc2s1
151 | CCOC(=O)c1nc2n(c(=O)c1O)CCC=C2c1ccccc1
34 to 38 | CCOC(=O)c1cnoc1-c1ccc(F)cc1
159 to 161 | ONC1CCn2c1cc1ccccc12 (configuration not stated)
107 to 108 | Clc1ccc(CNc2cccnc2)cc1
85 to 86 | COC(=O)c1nc2c(CBr)cccc2n1COCC[Si](C)(C)C
85 to 86 | COc1ccc(C(=O)c2c(Cc3ccccc3)sc(C)c2C)cc1
187 | COc1cc(Nc2nccc(-c3ccccc3)n2)cc(OC)c1OC
198 to 200 | O=C1Nc2ccc(Cl)cc2C1(NCCO)c1ccccc1Cl (configuration not stated)
132 to 133 | N#CC1=Cc2cc(Br)ccc2OC1
170 | CCc1noc(-c2ncc3[nH]c4cccc(Oc5ccc(Cl)cc5)c4c3c2COC)n1
194 to 195 | CCC(=O)N(C)c1c(C(=O)c2cccc(Cl)c2)[nH]c2cc(Cl)ccc12
159 to 161 | CCCc1cc(N2CCC(NCC(O)c3ccc4ccccc4n3)CC2)nc2sc(C(N)=O)c(N)c12 (configuration not stated)
124 | O=C1N(c2cc(Cl)cc(Cl)c2)C(=O)C2(Cc3ccc(Br)cc3)C[C@@H](c3ccccc3)CN12 (some centres not stated)
251 to 252 | NS(=O)(=O)c1ccc(-c2oc3c(Cl)ccc(O)c3c(=O)c2-c2ccc(F)cc2)cc1
163 to 165 | COc1ccc(CCNc2c(-c3ccc(S(C)(=O)=O)cc3)cnn(CC(F)(F)F)c2=O)cc1OC
165 to 167 | OCCNc1nc(Cl)nc2cccc(Br)c12
128 to 131 | COc1ccc(CN2C(=O)C3CCCC3=Nc3ccccc32)cc1 (configuration not stated)
64 to 65 | CCOCc1nc2cnc3ccccc3c2n1CCC(C)C
196 to 198 | CCOc1cccc2cc(S(=O)(=O)Nc3ccc(OC)cc3)c(=O)oc12
